Legend:
[1] = Triclosan distribution between suture and package components after sterilization; assay type: physicochemical; settings: size 5-0 suture, 2% triclosan coating composition, about 23.2 µg before sterilization
Method: The coated sutures each were placed in a package as described herein above including a containment component, i.e., a tray, for holding the suture and a paper component for covering the suture in the tray. The suture in the containment component and packaging were sterilized as described herein above. After sterilization, it was determined that that suture contained about 5.5 µg triclosan, the tray about 0.2 µg triclosan, the paper component about 2.3 µg triclosan, and the package heat seal coating about 1.5 µg triclosan. Triclosan not recovered after sterilization was about 13.7 µg triclosan. Fig. 1 indicates triclosan transfer from the antimicrobial suture to the tray of the package as a function of time at 55°C.

S. aureus = settings: suitable growth medium; cited from earlier work

## Oc1cc(Cl)ccc1Oc1ccc(Cl)cc1Cl [2,4,4'-trichloro-2'-hydroxydiphenyl ether]
[1]
  Triclosan not recovered after sterilization: about 13.7 µg
  triclosan on package heat seal coating after sterilization: about 1.5 µg
  triclosan on paper component after sterilization: about 2.3 µg
  triclosan on suture after sterilization: about 5.5 µg
  triclosan on tray after sterilization: about 0.2 µg
S. aureus
  minimum inhibitory concentration (MIC): 0.01 ppm

— patent publication EP1555944B1, “PACKAGED ANTIMICROBIAL MEDICAL DEVICE AND METHOD OF PREPARING SAME” (ETHICON, INC., priority 2002, dated 2004)
